# Laboratory results taken from patent US11629201B2, “PSMA-binding agents and uses thereof” (ITM Isotope Technologies Munich SE, priority 2017, dated 2023).
# Where “and” joins values, the source holds several entries; their conditions need not be identical. Identical values can stand only once.
# Key:
# [1] = tested on: PC-3 PIP/flu tumor-bearing mice; experiment: Biodistribution studies in PC-3 PIP/flu tumor-bearing mice; conditions: for Tumor-to-blood / Tumor-to-kidney / Tumor-to-liver: PC-3 PIP tumor
# mouse plasma proteins = experiment: Ultrafiltration assay, binding to mouse plasma proteins; type: in vitro ADME
# Method: Filter Assay. […] In addition, the radioligands were diluted in PBS (buffer solution without proteins) as a control experiment. Aliquots of the solutions were loaded onto an ultrafiltration device and centrifuged. The filtered activity was measured with a γ-counter and used for calculating the plasma protein-bound activity (retained on the filter membrane) as the percentage of total added activity. […] Statistical analysis (one-way ANOVA with Bonferroni's multiple comparison post-test) was performed using GraphPad Prism software, version 7. A p-value of <0.05 was considered statistically significant.
# [2] = tested on: PSMA-positive PC-3 PIP cells; experiment: Cell uptake and internalization in PSMA-positive PC-3 PIP cells; type: cell-based
# human plasma proteins = experiment: Ultrafiltration assay, binding to human plasma proteins; conditions: human plasma, ultrafiltration
# Method: Therefore, the compounds were labeled with ^177Lu at a specific activity of 50 MBq/nmol and incubated in human plasma samples or PBS at room temperature. The free and plasma-bound fractions were separated using a centrifree ultrafiltration device (4104 centrifugal filter units [Millipore]; 30000 Da nominal molecular weight limit, methylcellulose micropartition membranes). The incubated solution was loaded to the ultrafiltration device and centrifuged at 2500 rpm for 40 min at 20° C. Samples from the filtrate were taken an analyzed for radioactivity in a gamma-counter. The amount of plasma-bound compound was calculated as the fraction of radioactivity measured in the filtrate relative to the corresponding loading solution (set to 100%).
# Determination of Albumin-binding Properties. The binding of the radioligands to human plasma proteins was determined by an ultrafiltration assay. […] Three independent experiments were performed in duplicates with both radioligands and the data was fitted to a semi-logarithmic plot (non-linear regression, one-site, specific binding) to obtain the half maximum binding (B50) in GraphPad Prism software (version 7).
# The ^177Lu-labeled PSMA ligands (50 MBq/nmol) were diluted in mouse plasma (Rockland, USA) and human plasma (Stiftung Blutspende SRK Aargau-Solothurn, Switzerland), respectively, and incubated for 15 min at room temperature. In addition, the radioligands were diluted in PBS (buffer solution without proteins) as a control experiment. Aliquots of the solutions were loaded onto an ultrafiltration device and centrifuged. The filtered activity was measured with a γ-counter and used for calculating the plasma protein-bound activity (retained on the filter membrane) as the percentage of total added activity. […] Statistical analysis (one-way ANOVA with Bonferroni's multiple comparison post-test) was performed using GraphPad Prism software, version 7. A p-value of <0.05 was considered statistically significant.
# [3] = non-decay-corrected biodistribution data up to 192 h p.i.
smiles,measurement,setting,value
"O=C(O)CCC(NC(=O)NC(CCCCNC(=O)C(Cc1ccc2ccccc2c1)NC(=O)C1CCC(CNC(=O)C(CCCCNC(=O)CN2CCN(CC(=O)O)CCN(CC(=O)O)CCN(CC(=O)O)CC2)NC(=O)CC(NC(=O)CC(NC(=O)CC(NC(=O)CCCc2ccc(I)cc2)C(=O)O)C(=O)O)C(=O)O)CC1)C(=O)O)C(=O)O (stereo not shown) [^177Lu-PSMA-ALB-07, metal not drawn]",Blood,[1]; 4 h p.i.,6.67 ± 2.04 % IA/g
same,Bone,[1]; 4 h p.i.,1.30 ± 0.27 % IA/g
same,Heart,[1]; 4 h p.i.,2.43 ± 0.78 % IA/g
same,Intestines,[1]; 4 h p.i.,1.27 ± 0.45 % IA/g
same,Kidneys,[1]; 4 h p.i.,67.0 ± 9.50 % IA/g
same,Liver,[1]; 4 h p.i.,1.94 ± 1.02 % IA/g
same,Lung,[1]; 4 h p.i.,4.67 ± 0.92 % IA/g
same,Muscle,[1]; 4 h p.i.,0.78 ± 0.22 % IA/g
same,PC-3 PIP Tumor,[1]; 4 h p.i.,63.5 ± 27.4 % IA/g
same,PC-3 flu Tumor,[1]; 4 h p.i.,1.80 ± 0.27 % IA/g
same,Salivary glands,[1]; 4 h p.i.,2.09 ± 0.50 % IA/g
same,Spleen,[1]; 4 h p.i.,3.41 ± 1.46 % IA/g
same,Stomach,[1]; 4 h p.i.,1.09 ± 0.30 % IA/g
same,Tumor-to-blood,[1]; 4 h p.i.,9327 ± 1.75
same,Tumor-to-kidney,[1]; 4 h p.i.,0.88 ± 0.28
same,Tumor-to-liver,[1]; 4 h p.i.,33.6 ± 6.56
same,Blood,[1]; 24 h p.i.,0.79 ± 0.08 % IA/g
same,Bone,[1]; 24 h p.i.,0.31 ± 0.10 % IA/g
same,Heart,[1]; 24 h p.i.,0.40 ± 0.00 % IA/g
same,Intestines,[1]; 24 h p.i.,0.20 ± 0.03 % IA/g
same,Kidneys,[1]; 24 h p.i.,51.9 ± 6.34 % IA/g
same,Liver,[1]; 24 h p.i.,0.52 ± 0.04 % IA/g
same,Lung,[1]; 24 h p.i.,0.73 ± 0.06 % IA/g
same,Muscle,[1]; 24 h p.i.,0.13 ± 0.01 % IA/g
same,PC-3 PIP Tumor,[1]; 24 h p.i.,84.6 ± 14.2 % IA/g
same,PC-3 flu Tumor,[1]; 24 h p.i.,0.80 ± 0.17 % IA/g
same,Salivary glands,[1]; 24 h p.i.,0.43 ± 0.04 % IA/g
same,Spleen,[1]; 24 h p.i.,1.14 ± 0.04 % IA/g
same,Stomach,[1]; 24 h p.i.,0.18 ± 0.06 % IA/g
same,Tumor-to-blood,[1]; 24 h p.i.,107 ± 12.2 and 107 ± 10
same,Tumor-to-kidney,[1]; 24 h p.i.,1.64 ± 0.29 and 1.6 ± 0.2
same,Tumor-to-liver,[1]; 24 h p.i.,162 ± 17.3 and 162 ± 14
same,Tumor-to-blood,[1]; 48 h p.i.,154 ± 7
same,Tumor-to-kidney,[1]; 48 h p.i.,2.3 ± 0.1
same,Tumor-to-liver,[1]; 48 h p.i.,131 ± 13
same,Blood,[1]; 72 h p.i.,0.40 ± 0.06 % IA/g
same,Bone,[1]; 72 h p.i.,0.31 ± 0.06 % IA/g
same,Heart,[1]; 72 h p.i.,0.21 ± 0.01 % IA/g
same,Intestines,[1]; 72 h p.i.,0.10 ± 0.01 % IA/g
same,Kidneys,[1]; 72 h p.i.,26.0 ± 1.58 % IA/g
same,Liver,[1]; 72 h p.i.,0.44 ± 0.08 % IA/g
same,Lung,[1]; 72 h p.i.,0.43 ± 0.02 % IA/g
same,Muscle,[1]; 72 h p.i.,0.08 ± 0.01 % IA/g
same,PC-3 PIP Tumor,[1]; 72 h p.i.,62.6 ± 6.35 % IA/g
same,PC-3 flu Tumor,[1]; 72 h p.i.,0.43 ± 0.04 % IA/g
same,Salivary glands,[1]; 72 h p.i.,0.21 ± 0.01 % IA/g
same,Spleen,[1]; 72 h p.i.,0.49 ± 0.03 % IA/g
same,Stomach,[1]; 72 h p.i.,0.10 ± 0.01 % IA/g
same,Tumor-to-blood,[1]; 72 h p.i.,160 ± 37.0
same,Tumor-to-kidney,[1]; 72 h p.i.,2.41 ± 0.18
same,Tumor-to-liver,[1]; 72 h p.i.,147 ± 38.4
same,AUC PC-3 PIP tumor,[1]; [3],7007 ± 459 % IA/g · h
same,AUC blood,[1]; [3],180 ± 7.2 % IA/g · h
same,AUC kidneys,[1]; [3],3395 ± 201 % IA/g · h
same,AUC liver,[1]; [3],72 ± 3.6 % IA/g · h
same,Ratio of AUCs AUCTu-to-AUCBl,[1]; tumor to blood,39
same,Ratio of AUCs AUC-Tu-to-AUC-Ki,[1]; tumor to kidneys,2.1
same,Ratio of AUCs AUCTu-to-AUCLi,[1]; tumor to liver,97
same,plasma protein-bound fraction,mouse plasma proteins,64±2.1%
same,cell uptake,[2]; 2 h,52-57%
same,internalized fraction,[2]; 2 h,18-24%
same,cell uptake,[2]; 4 h,60-63%
same,internalized fraction,[2]; 4 h,20-26%
same,plasma protein-bound fraction,human plasma proteins,95±0.1%
